Measured values taken from patent US8829007B2 (priority 2009, dated 2014).
Where two headings read alike, the source gives them in different places.

Legend:
[1] = test system: influenza A virus (A/PR/8/34); experiment: microbe, parasite or virus in culture; format: cell-based; conditions: Influenza A virus, PR/8, MDCK, read-out: IC50 (mean all)
[2] = test system: A/PR/8/34 influenza virus; experiment: microbe, parasite or virus in culture; format: cell-based; conditions: Influenza A virus, PR/8, MDCK, read-out: EC50 (mean all)
[3] = MDCK cells infected with A/PR/8/34, cell protection (CPE)
[4] = MDCK cells infected with A/PR/8/34, bDNA viral RNA

Structure (SMILES) | IC50 [1, 3] | EC50 [2, 4] | IC50 [1] | EC50 [2]
O=C(Nc1ccsc1)N1CCC[C@@H](CNc2nc(-c3c[nH]c4ncc(Cl)cc34)ncc2F)C1 [Compound 22, (S)-3-((2-(5-chloro-1H-pyrrolo[2,3-b]pyridin-3-yl)-5-fluoropyrimidin-4-ylamino)methyl)-N-(thiophen-3-yl)piperidine-1-carboxamide] | < 5 µM | < 5 µM |  | 
COC(=O)N1CCC[C@@H](CNc2nc(-c3c[nH]c4ncc(Cl)cc34)ncc2F)C1 [Compound 23, (S)-methyl 3-((2-(5-chloro-1H-pyrrolo[2,3-b]pyridin-3-yl)-5-fluoropyrimidin-4-ylamino)methyl)piperidine-1-carboxylate] | < 5 µM | < 5 µM |  | 
CCOC(=O)CNC(=O)N1CCC[C@@H](CNc2nc(-c3c[nH]c4ncc(Cl)cc34)ncc2F)C1 [Compound 25, (S)-ethyl 2-(3-((2-(5-chloro-1H-pyrrolo[2,3-b]pyridin-3-yl)-5-fluoropyrimidin-4-ylamino)methyl)piperidine-1-carboxamido)ethanoate] | < 5 µM | < 5 µM |  | 
CCOC(=O)NC(=O)N1CCC[C@@H](CNc2nc(-c3c[nH]c4ncc(Cl)cc34)ncc2F)C1 [Compound 26, (S)-ethyl 3-((2-(5-chloro-1H-pyrrolo[2,3-b]pyridin-3-yl)-5-fluoropyrimidin-4-ylamino)methyl)piperidine-1-carbonylcarbamate] | < 5 µM | < 5 µM |  | 
CC(C)NC(=O)N1CCC[C@@H](CNc2nc(-c3c[nH]c4ncc(Cl)cc34)ncc2F)C1 [Compound 27, (S)-3-((2-(5-chloro-1H-pyrrolo[2,3-b]pyridin-3-yl)-5-fluoropyrimidin-4-ylamino)methyl)-N-isopropylpiperidine-1-carboxamide] | < 5 µM | < 5 µM |  | 
CC(C)COC(=O)N1CCC[C@@H](CNc2nc(-c3c[nH]c4ncc(Cl)cc34)ncc2F)C1 [Compound 28, (S)-isobutyl 3-((2-(5-chloro-1H-pyrrolo[2,3-b]pyridin-3-yl)-5-fluoropyrimidin-4-ylamino)methyl)piperidine-1-carboxylate] | > 20 µM | < 5 µM |  | 
CC#CCOC(=O)N1CCC[C@@H](CNc2nc(-c3c[nH]c4ncc(Cl)cc34)ncc2F)C1 [Compound 30, (S)-but-2-ynyl 3-((2-(5-chloro-1H-pyrrolo[2,3-b]pyridin-3-yl)-5-fluoropyrimidin-4-ylamino)methyl)piperidine-1-carboxylate] |  |  | 5 to 20 µM | < 5 µM
N[C@@H]1CCCC[C@H]1Nc1nc(-c2c[nH]c3ncc(Cl)cc23)ncc1C(F)(F)F [Compound 31, (1R,2R)—N1-(2-(5-chloro-1H-pyrrolo[2,3-b]pyridin-3-yl)-5-(trifluoromethyl)pyrimidin-4-yl)cyclohexane-1,2-diamine] | < 5 µM | < 5 µM |  | 
CCC(=O)N1CCC[C@@H](CNc2nc(-c3c[nH]c4ncc(Cl)cc34)ncc2F)C1 [Compound 32, (S)-1-(3-((2-(5-chloro-1H-pyrrolo[2,3-b]pyridin-3-yl)-5-fluoropyrimidin-4-ylamino)methyl)piperidin-1-yl)propan-1-one] | < 5 µM | < 5 µM |  | 
CCOC(=O)N1CCC[C@@H](CNc2nc(-c3c[nH]c4ncc(Cl)cc34)ncc2F)C1 [Compound 33, (S)-ethyl 3-((2-(5-chloro-1H-pyrrolo[2,3-b]pyridin-3-yl)-5-fluoropyrimidin-4-ylamino)methyl)piperidine-1-carboxylate] | < 5 µM | < 5 µM |  | 
CS(=O)(=O)N1CCC[C@@H](CNc2nc(-c3c[nH]c4ncc(Cl)cc34)ncc2F)C1 [Compound 36, (S)-2-(5-chloro-1H-pyrrolo[2,3-b]pyridin-3-yl)-5-fluoro-N-((1-(methylsulfonyl)-piperidin-3-yl)methyl)pyrimidin-4-amine] | < 5 µM | < 5 µM |  | 
CC(=O)N1CCC[C@@H](CNc2nc(-c3c[nH]c4ncc(Cl)cc34)ncc2F)C1 [Compound 37, (S)-1-(3-((2-(5-chloro-1H-pyrrolo[2,3-b]pyridin-3-yl)-5-fluoropyrimidin-4-ylamino)methyl)piperidin-1-yl)ethanone] | < 5 µM | < 5 µM |  | 
C=CCNC(=O)N1CCC[C@@H](CNc2nc(-c3c[nH]c4ncc(Cl)cc34)ncc2F)C1 [Compound 39, (S)—N-allyl-3-((2-(5-chloro-1H-pyrrolo[2,3-b]pyridin-3-yl)-5-fluoropyrimidin-4-ylamino)methyl)piperidine-1-carboxamide] | < 5 µM | < 5 µM |  | 
CC=CC(=O)N1CCC[C@@H](CNc2nc(-c3c[nH]c4ncc(Cl)cc34)ncc2F)C1 [Compound 41, (S)-1-(3-((2-(5-chloro-1H-pyrrolo[2,3-b]pyridin-3-yl)-5-fluoropyrimidin-4-ylamino)methyl)piperidin-1-yl)but-2-en-1-one] |  |  | < 5 µM | < 5 µM
O=C(CC(F)(F)F)N1CCC[C@@H](CNc2nc(-c3c[nH]c4ncc(Cl)cc34)ncc2F)C1 [Compound 44, (S)-1-(3-((2-(5-chloro-1H-pyrrolo[2,3-b]pyridin-3-yl)-5-fluoropyrimidin-4-ylamino)methyl)piperidin-1-yl)-3,3,3-trifluoropropan-1-one] | < 5 µM | < 5 µM |  | 
COCC(=O)N1CCC[C@@H](CNc2nc(-c3c[nH]c4ncc(Cl)cc34)ncc2F)C1 [Compound 45, (S)-1-(3-((2-(5-chloro-1H-pyrrolo[2,3-b]pyridin-3-yl)-5-fluoropyrimidin-4-ylamino)methyl)piperidin-1-yl)-2-methoxyethanone] | < 5 µM | < 5 µM |  | 
O=C(Cc1cccnc1)N1CCC[C@@H](CNc2nc(-c3c[nH]c4ncc(Cl)cc34)ncc2F)C1 [Compound 47, (S)-1-(3-((2-(5-chloro-1H-pyrrolo[2,3-b]pyridin-3-yl)-5-fluoropyrimidin-4-ylamino)methyl)piperidin-1-yl)-2-(pyridin-3-yl)ethanone] | < 5 µM | < 5 µM |  | 
C=CCC(=O)N1CCC[C@@H](CNc2nc(-c3c[nH]c4ncc(Cl)cc34)ncc2F)C1 [Compound 49, (S)-1-(3-((2-(5-chloro-1H-pyrrolo[2,3-b]pyridin-3-yl)-5-fluoropyrimidin-4-ylamino)methyl)piperidin-1-yl)but-3-en-1-one] | < 5 µM | < 5 µM |  | 
O=C1CC[C@H](C(=O)N2CCC[C@@H](CNc3nc(-c4c[nH]c5ncc(Cl)cc45)ncc3F)C2)O1 [Compound 51, (R)-5-((S)-3-((2-(5-chloro-1H-pyrrolo[2,3-b]pyridin-3-yl)-5-fluoropyrimidin-4-ylamino)methyl)piperidine-1-carbonyl)dihydrofuran-2(3H)-one] | < 5 µM | < 5 µM |  | 
C#CCCC(=O)N1CCC[C@@H](CNc2nc(-c3c[nH]c4ncc(Cl)cc34)ncc2F)C1 [Compound 52, (S)-1-(3-((2-(5-chloro-1H-pyrrolo[2,3-b]pyridin-3-yl)-5-fluoropyrimidin-4-ylamino)methyl)piperidin-1-yl)pent-4-yn-1-one] | < 5 µM | < 5 µM |  | 
O=C(O)[C@H]1CC[C@@H](C(=O)N2CCC[C@H](CNc3nc(-c4c[nH]c5ncc(Cl)cc45)ncc3F)C2)C1 [Compound 55, (1S,3R)-3-((R)-3-((2-(5-chloro-1H-pyrrolo[2,3-b]pyridin-3-yl)-5-fluoropyrimidin-4-ylamino)methyl)piperidine-1-carbonyl)cyclopentanecarboxylic acid] | < 5 µM | < 5 µM |  | 
